The source of these data is patent publication US20210041441A1, “DISCOVERY OF NOVEL MOLECULES AND REPURPOSED DRUGS FOR RAS FAMILY GTPases” (UNM Rainforest Innovations, priority 2018, published 2021).

One assay deals with Q61 KRas mutants. Kind of assay: Multiplex flow cytometry Bodipy FL-GTP binding, compound dose response, Q61 mutants. Set-up: species or system Human. The note with it: 10 nM Bodipy FL-GTP. On the procedure: Bead Coupling: 4 μm diameter, glutathione-beads (GSH-beads), distinguished by ten different intensities of red fluorescence (varying by several orders of magnitude of emission at 665±10 nm with excitation at 635 nm) were obtained by special order from Duke Scientific Corp. Each polystyrene bead set is supplied at 1.4×10^8 beads/ml with approximately 1.2×10^6 glutathione sites per bead (determined by using GST—green fluorescent protein^42). Prior to incubation with individual GST-GTPase fusion proteins, an appropriate volume of each bead slurry was incubated for 30 minutes at room temperature in assay buffer (20 mM HEPES pH 7.5, 125 μM […], 1 mM MgCl2, 0.5 mM EDTA pH 8.0, 0.01% NP-40) supplemented with 1 mM dithiothreitol and 0.1% BSA. Following this initial incubation, passivated beads were collected by centrifugation and resuspended in assay buffer with individual GST-GTPase fusion proteins at a final concentration of […]. Overnight coupling reactions were carried out at 4° C. with rotation. The amount of each bead type used for coupling and the final volume of the coupling reaction was determined by the experimental protocol. Typically, bead sets are used at a final concentration of 200 bead/μL. To remove unbound GST-GTPase, bead sets were washed twice by centrifugation with ice-cold assay buffer. Individually coated beads were pooled together and kept cold in an appropriate volume before use in binding assays. Bead-bound proteins are sufficiently stable to study secondary interactions between GTPase-GST chimera's and Bodipy-FL GTP^54. Note that an extra GSH-bead set is included that is not protein coupled. This set serves as a ‘scavenger’ for proteins that might dissociate during the binding assay.
For assay screening plates, compound libraries were first dispensed into columns 3-22 using a Labcyte 555 Echo Acoustic Dispenser (San Jose, Calif.) for a final concentration of 10 μM. An equal volume (10 nL) of DMSO was added to the vehicle control wells (column 2). Following the addition of library compounds, 2 μL of assay buffer was added and the plates were mixed before addition of 5 μL of the protein-coupled bead mixtures; 10 μL of assay buffer was added to empty wells in columns 1 and 24. Empty wells serve as wash wells between compound wells and control wells. Plates were mixed and incubated on a rotator for 30 minutes at 4° C. before the addition of 3 μL of Bodipy FL-GTP resulting in a final concentration 10 nM Bodipy FL-GTP. Plates were mixed and incubated for 1 hour at 4° C. Negative controls, containing bead mixtures, Bodipy FL-GTP, and 30 μM unlabeled GTP were assayed separately. Dose response plates were assembled similarly.
Data Acquisition: Assay plates were sampled using the HyperCyt™ high throughput flow cytometry platform (Intellicyt; Albuquerque, N. Mex.). During sampling, the probe moves from well to well and samples 1-2 μL from each well with 0.4 sec transit time in the air before sampling the next well. The resulting sample stream consisting of 384 bubble-separated samples is delivered to an Accuri C6 flow cytometer (BD Biosciences; San Jose, Calif.). Bodipy FL-GTP fluorescence is excited at 488 nm and detected with a 533/30 bandpass filter. […] Gating based on red fluorescence emission distinguishes the separately coated beads. […]
For orientation: A flow cytometer gives signals particle by particle.

The test system of assay [1] is Ras family GTPases (KRas WT, G12v, G13d, G12a, G12c, G12d, Q61H, Q61L, Q61R; HRas WT, HRas G12v; CDC42 WT, CDC42 L61; Rac1 WT, Rac1 L61). As to the kind of experiment: Multiplex flow cytometry Bodipy FL-GTP binding, compound screen and dose response. The note with it: for activity or affinity relative to other compounds / selectivity among GTPases (RAS vs non-RAS, individual proteins): multiplex dose response; for class of modulation of Bodipy-GTP binding to Ras family GTPases (pan activator, pan inhibitor, selective inhibitor, mixed activity modulator): multiplex, 10 nM Bodipy FL-GTP, compound 100-0.015 μM, normalized to DMSO.

Assay [2] has as its system KRas G12v, HRas G12V, Kras Q61R, Rac1 L61, CDC42. Kind of assay: Equilibrium kinetics assays, real-time Bodipy FL-GTP association and dissociation. It counts as binding, Human. The note with it: pre-binding at 4° C. or RT in the presence of Mg2+. On the procedure: Equilibrium Kinetics Assays: GTPase-coupled beads were prepared as described above and were kept on ice until used. Reactions were performed at room temperature in amber micro-centrifuge tubes in an appropriate volume of assay buffer. Bead mixtures were initially incubated on a rotator with Guanabenz acetate (100 μM) or DMSO for 30 min at 4° C. prior to the addition of 1 nM Bodipy FL-GTP. Real-time binding kinetics was recorded using an Accuri C6 flow cytometer. Binding association was followed for 15 minutes at which time excess GTP was added. Disassociation kinetics was followed for an additional 25 minutes. Data was analyzed using GraphPad Prism software. The association time course was fitted to a two phase exponential association and the dissociation time course was fitted to a two phase decay (exponential).
To determine mechanism of action, we evaluated binding and dissociation of Bodipy FL-GTP in real-time kinetic experiments in the presence of Guanabenz acetate or GTP. Tests included pre-binding of Bodipy-FL GTP at 4′ C. or RT in the presence of Mg^2+.
It was then elected to perform association rate analysis, using the order of addition of reagents used in screening, where guanabenz was added first, incubated at 4° C., then Bodipy FL-GTP was added at room temperature.

“Also recorded” adds a separate entry of the source. Structures can show the parent of a compound that is named as a salt.

As for `CN(C)CC/C=C1/c2ccccc2Sc2ccc(Cl)cc21` [Chlorprothixene hydrochloride], the “effect on GTP binding to Q61 KRas mutants” value (shortened to “effect on GTP binding”) in the assay with Q61 KRas mutants is reported as “not to Q61 KRas mutants”. The “activity or affinity relative to other compounds” value in assay [1] is “most active”. In assay [1], the “selectivity among GTPases (RAS vs non-RAS, individual proteins)” value is “selective for KRas WT, the KRas G12 mutants, and the HRas proteins”. In addition, the “class of modulation of Bodipy-GTP binding to Ras family GTPases (pan activator, pan inhibitor, selective inhibitor, mixed activity modulator)” value in assay [1] (hydrochloride) is given as “selective inhibitors”; in assay [1] (listed as chlorprothixene hydrochloride, hydrochloride), “Selective inhibitors”; in assay [1] (listed as chlorproxithene, hydrochloride) it was “selective inhibition”.
Turning to `Nc1nc2c(ncn2[C@@H]2O[C@H](COP(=O)(O)OP(=O)(O)OP(=O)(O)O)[C@@H](O)[C@H]2O)c(=O)[nH]1` [GTP], the “displacement of pre-bound Bodipy FL-GTP” value in assay [2] was “could be displaced by GTP”.
With `O=C1c2ccccc2S(=O)(=O)N1CCCCN1CCN(c2ncccn2)CC1` [Ipsapirone], the “class of modulation of Bodipy-GTP binding to Ras family GTPases (pan activator, pan inhibitor, selective inhibitor, mixed activity modulator)” value in assay [1] is reported as “mixed activity modulators”; in assay [1] (listed as ipsapirone), “modulators with mixed activity”.
On to `Cc1ccc(Cl)c(Nc2ccccc2C(=O)O)c1Cl` [Meclofenamic acid sodium salt monohydrate], for which the “class of modulation of Bodipy-GTP binding to Ras family GTPases (pan activator, pan inhibitor, selective inhibitor, mixed activity modulator)” value was “Pan activators” in assay [1] (listed as meclofenamic acid sodium salt monohydrate, sodium salt monohydrate) and “pan activators” in assay [1] (sodium salt monohydrate).
As to `Cc1cccc(Nc2ccccc2C(=O)O)c1C` [Mefenamic Acid], the entries for the “class of modulation of Bodipy-GTP binding to Ras family GTPases (pan activator, pan inhibitor, selective inhibitor, mixed activity modulator)” value in assay [1] and in assay [1] (listed as mefenamic acid) were “pan activators” and “Pan activators”, respectively.
In the case of `CC1=CC(=O)c2ccccc2C1=O` [Menindione], the “class of modulation of Bodipy-GTP binding to Ras family GTPases (pan activator, pan inhibitor, selective inhibitor, mixed activity modulator)” value in assay [1] is given as “PanActivators”.
On to `O=C1C(Cl)=C(NCCN2CCOCC2)C(=O)c2ncccc21` [NSC 663284], for which, in the assay on Q61 KRas mutants, the “effect on GTP binding” value is “not to Q61 KRas mutants”. For the same compound, the “class of modulation of Bodipy-GTP binding to Ras family GTPases (pan activator, pan inhibitor, selective inhibitor, mixed activity modulator)” value in assay [1] (listed as NSC663284) is on record as “Selective inhibitors”.
On to `COc1ccc2cc([C@H](C)C(=O)O)ccc2c1` [Naproxen], for which the “class of modulation of Bodipy-GTP binding to Ras family GTPases (pan activator, pan inhibitor, selective inhibitor, mixed activity modulator)” value in assay [1] is recorded as “pan activators”; in assay [1] (listed as naproxen) it was “Pan activators”.
For the compound `Cc1cc(I)ccc1Nc1c(C(=O)NOCC2CC2)cc(F)c(F)c1F` [PD 198306], the “class of modulation of Bodipy-GTP binding to Ras family GTPases (pan activator, pan inhibitor, selective inhibitor, mixed activity modulator)” value is reported as “mixed activity modulators” in assay [1] and “mixed activity with mostly activation, but some inhibition as well; also recorded: modulators with mixed activity” in assay [1] (listed as PD198306).
`N#CSc1cc(SC#N)c(N)nc1N` [PR-619]: the “class of modulation of Bodipy-GTP binding to Ras family GTPases (pan activator, pan inhibitor, selective inhibitor, mixed activity modulator)” value in assay [1] is listed as “pan inhibitors”.
For the compound `CN1CCC(=C2c3ccccc3Sc3ccccc32)CC1` [Pimethixene Maleate], the “class of modulation of Bodipy-GTP binding to Ras family GTPases (pan activator, pan inhibitor, selective inhibitor, mixed activity modulator)” value in assay [1] is listed as “mixed activity modulators”; in assay [1] (listed as pimethixene maleate), “modulators with mixed activity”; in assay [1] (listed as pimethixine maleate), “mixed activity”.
As for `CC(C)Cc1ccc(C(C)C(=O)O)cc1` (stereo not drawn) [S-(+)-Ibuprofen], in assay [1], the “activity or affinity relative to other compounds” value is recorded as “lower affinity than the mixture”.
For the compound `CC(C)(C)C(=O)Nc1ccc2c(c1)C(=O)C(=O)c1ccccc1-2` [SF1670], the “effect on GTP binding” value with Q61 KRas mutants was “activates Q61 KRas mutants”. Moreover, in assay [1], the “selectivity among GTPases (RAS vs non-RAS, individual proteins)” value is on record as “RAS activator, non-RAS inhibitor” and the “class of modulation of Bodipy-GTP binding to Ras family GTPases (pan activator, pan inhibitor, selective inhibitor, mixed activity modulator)” value is listed as “modulators with mixed activity”. Further, the “class of modulation of Bodipy-GTP binding to Ras family GTPases (pan activator, pan inhibitor, selective inhibitor, mixed activity modulator)” value in assay [1] (listed as SF1760) was “mixed activity”.
In the case of `O=C(Oc1ccccc1C(=O)O)c1ccccc1O` [Salsalate], the “class of modulation of Bodipy-GTP binding to Ras family GTPases (pan activator, pan inhibitor, selective inhibitor, mixed activity modulator)” value in assay [1] was “pan activators”; in assay [1] (listed as salsalate) it was “Pan activators”.
For the compound `Cc1c(Cl)cccc1Nc1ccccc1C(=O)O` [Tolfenamic acid], the “class of modulation of Bodipy-GTP binding to Ras family GTPases (pan activator, pan inhibitor, selective inhibitor, mixed activity modulator)” value is given as “pan activators” in assay [1] and “Pan activators” in assay [1] (listed as tolfenamic acid).
For `CN1CCN(CCCN2c3ccccc3Sc3ccc(C(F)(F)F)cc32)CC1` [Trifluperazine Hydrochloride], the “effect on GTP binding” value in the assay on Q61 KRas mutants is “not to Q61 KRas mutants”. For the same compound, the “class of modulation of Bodipy-GTP binding to Ras family GTPases (pan activator, pan inhibitor, selective inhibitor, mixed activity modulator)” value in assay [1] (hydrochloride) is reported as “selective inhibitors”; in assay [1] (listed as trifluoperazine, Hydrochloride), “Selective inhibitors; also recorded: weak inhibition”.
As to A-7 hydrochloride, in assay [1], the “class of modulation of Bodipy-GTP binding to Ras family GTPases (pan activator, pan inhibitor, selective inhibitor, mixed activity modulator)” value is recorded as “pan activators”.
